Counter-ions that a name gives are not always drawn.
Legend:
THP-1 = THP-1 IC50 assay; format: cell-based; conditions: Homo sapiens; THP-1 cells
[1] = system: IL-1β release upon NLRP3 activation in peripheral blood mononuclear cells (PBMC); test: PBMC IC50 Determination Assay; format: cell-based; conditions: Homo sapiens; inhibition of IL-1β release; LPS-primed PBMC stimulated with ATP or nigericin
Procedure, shortened: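 Human PBMC from buffy coats primed 3 h with LPS (1 μg/mL in protocol B), then compound for 30 min, then ATP (5 mM) or nigericin (10 μM; protocol A only) for 1 h. IL-1β released into medium measured by ELISA at 450 nm (protocol A) or HTRF at […] (protocol B).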

Structure (SMILES)	IC50 (THP-1)	IC50 [1]
Cc1cc(Cl)cc(O)c1-c1ccc(CN2CCCC2=S)nn1 [Compound 89, 1-{[6-(4-Chloro-2-hydroxy-6-methylphenyl)pyridazin-3-yl]methyl}pyrrolidine-2-thione]	< 500 nM	< 500 nM
Cc1cc(Cl)cc(O)c1-c1ccc(CO[C@@H]2CCOC2)nn1 [Compound 63, (R)-5-Chloro-3-methyl-2-(6-(((tetrahydrofuran-3-yl)oxy)methyl)pyridazin-3-yl)phenol]	500 to 1000 nM	< 500 nM
Cc1cc(C(F)(F)F)cc(O)c1-c1ccc(CN[C@H]2CCC(=O)N(C)C2)nn1 [Compound 88]	< 500 nM	< 500 nM
Cc1cc(C(F)(F)F)cc(O)c1-c1ccc(CNCCN(C)C)nn1 [Compound 116]	3000 to 10000 nM	3000 to 10000 nM
Cc1cn(Cc2ccc(-c3c(C)cc(C(F)(F)F)cc3O)nn2)c(=N)s1 [Compound 125]	1000 to 3000 nM	1000 to 3000 nM
Cc1cc(C(F)(F)F)cc(O)c1-c1ccc(CN[C@@H]2CCC(=O)N(C)C2)nn1 [Compound 43, (R)-5-(((6-(2-Hydroxy-6-methyl-4-(trifluoromethyl)phenyl)pyridazin-3-yl)methyl)amino)-1-methylpiperidin-2-one]	500 to 1000 nM	< 500 nM
Cc1cc(Br)cc(O)c1-c1ccc(CNC2CCOCC2)nn1 [Compound 29, 5-Bromo-3-methyl-2-(6-(((tetrahydro-2H-pyran-4-yl)amino)methyl)pyridazin-3-yl)phenol]	< 500 nM	< 500 nM
Oc1cc(Cl)ccc1-c1ccc(CNC2CCOCC2)nn1 [Compound 16, 5-Chloro-2-(6-(((tetrahydro-2H-pyran-4-yl)amino)methyl)pyridazin-3-yl)phenol]	1000 to 3000 nM	≥ 10000 nM
Cc1cc(C(F)(F)F)cc(O)c1-c1ccc(C[n+]2cccc(N)c2)nn1 [Compound 145]	1000 to 3000 nM	3000 to 10000 nM
Cc1cc(OC(F)(F)F)cc(O)c1-c1ccc(CNC2CCOCC2)nn1 [Compound 30, 3-Methyl-2-(6-(((tetrahydro-2H-pyran-4-yl)amino)methyl)pyridazin-3-yl)-5-(trifluoromethoxy)phenol]	3000 to 10000 nM	3000 to 10000 nM
Cc1cc(C(F)(F)F)cc(O)c1-c1ccc(CN2CCCC2=O)nn1 [Compound 134]	< 500 nM	< 500 nM
CO[C@@H]1CCN(Cc2ccc(-c3c(C)cc(Cl)cc3O)nn2)C1 [Compound 60, (R)-5-Chloro-2-(6-((3-methoxypyrrolidin-1-yl)methyl)pyridazin-3-yl)-3-methylphenol]	1000 to 3000 nM	1000 to 3000 nM
Cc1cc(C(F)(F)F)cc(O)c1-c1ccc(CN[C@@H]2CC(=O)N(C)C2)nn1 [Compound 50, (R)-4-(((6-(2-Hydroxy-6-methyl-4-(trifluoromethyl)phenyl)pyridazin-3-yl)methyl)amino)-1-methylpyrrolidin-2-one]	3000 to 10000 nM	1000 to 3000 nM
Cc1cc(C(F)(F)F)cc(O)c1-c1ccc(CNc2cncnc2)nn1 [Compound 26]	1000 to 3000 nM	500 to 1000 nM
Cc1cc(C(F)(F)F)cc(O)c1-c1ccc(CNc2ccnn2C)nn1 [Compound 27]	1000 to 3000 nM	500 to 1000 nM
Cc1cc(C(F)(F)F)cc(O)c1-c1ccc(C(C)N2CCCC2=O)nn1 (centres unmarked) [Compound 80, 1-(1-{6-[2-Hydroxy-6-methyl-4-(trifluoromethyl)phenyl]pyridazin-3-yl}ethyl)pyrrolidin-2-one]	1000 to 3000 nM	< 500 nM
Cc1cc(Cl)cc(O)c1-c1ccc(CN2CCOC2=O)nn1 [Compound 67, 3-((6-(4-Chloro-2-hydroxy-6-methylphenyl)pyridazin-3-yl)methyl)oxazolidin-2-one]	< 500 nM	< 500 nM
Cc1cc(C(F)(F)F)cc(O)c1-c1ccc(CN[C@@H]2CCN(C)C(=O)C2)nn1 [Compound 37, (R)-4-(((6-(2-Hydroxy-6-methyl-4-(trifluoromethyl)phenyl)pyridazin-3-yl)methyl)amino)-1-methylpiperidin-2-one]	1000 to 3000 nM	500 to 1000 nM
Cc1cc(C(F)(F)F)cc(O)c1-c1ccc(COC2CCCN(C)C2)nn1 (centres unmarked) [Compound 41, 3-Methyl-2-(6-(((1-methylpiperidin-3-yl)oxy)methyl)pyridazin-3-yl)-5-(trifluoromethyl)phenol hydrochloride]	1000 to 3000 nM	500 to 1000 nM
Cc1cc(Cl)cc(O)c1-c1ccc(CN2CCCC2)nn1 [Compound 54, 5-Chloro-3-methyl-2-(6-(pyrrolidin-1-ylmethyl)pyridazin-3-yl)phenol]	500 to 1000 nM	< 500 nM
Cc1cc(C(F)(F)F)cc(O)c1-c1ccc(CNc2cccnc2)nn1 [Compound 79, 3-Methyl-2-(6-{[(pyridin-3-yl)amino]methyl}pyridazin-3-yl)-5-(trifluoromethyl)phenol]	500 to 1000 nM	500 to 1000 nM
Cc1cc(C(F)(F)F)cc(O)c1-c1ccc(CN2CCC(F)(F)C2)nn1 [Compound 38, 2-(6-((3,3-Difluoropyrrolidin-1-yl)methyl)pyridazin-3-yl)-3-methyl-5-(trifluoromethyl)phenol]	500 to 1000 nM	< 500 nM
Cc1cc(NCc2ccc(-c3c(C)cc(C(F)(F)F)cc3O)nn2)no1 [Compound 31, 3-Methyl-2-(6-(((5-methylisoxazol-3-yl)amino)methyl)pyridazin-3-yl)-5-(trifluoromethyl)phenol]	1000 to 3000 nM	< 500 nM

Structure (SMILES)	IC50 (THP-1)	IC50 [1]
Cc1cc(Cl)cc(O)c1-c1ccc(CN2CCCC2=O)nn1 [Compound 62, 1-[[6-(4-chloro-2-hydroxy-6-methyl-phenyl)pyridazin-3-yl]methyl]pyrrolidin-2-one]	< 500 nM	< 500 nM
Cc1cc(C(F)(F)F)cc(O)c1-c1ccc(CNCC2CC2)nn1 [Compound 97]	1000 to 3000 nM	500 to 1000 nM
Cc1cc(CNC2CCOCC2)nnc1-c1c(C)cc(C(F)(F)F)cc1O [Compound 10, 3-Methyl-2-(4-methyl-6-(((tetrahydro-2H-pyran-4-yl)amino)methyl)pyridazin-3-yl)-5-(trifluoromethyl)phenol]	1000 to 3000 nM	1000 to 3000 nM
COCC(=O)NCc1ccc(-c2c(C)cc(C(F)(F)F)cc2O)nn1 [Compound 8, N-((6-(2-Hydroxy-6-methyl-4-(trifluoromethyl)phenyl)pyridazin-3-yl)methyl)-2-methoxyacetamide]	3000 to 10000 nM	1000 to 3000 nM
Cc1cc(C(F)(F)F)cc(O)c1-c1ccc(CNC2CCCCC2)nn1 [Compound 100]	1000 to 3000 nM	1000 to 3000 nM
Cc1cc(C(F)(F)F)cc(O)c1-c1ccc(CNc2cnsc2)nn1 [Compound 150]	< 500 nM	< 500 nM
Cc1cc(C(F)(F)F)cc(O)c1-c1ccc(CNCC(F)(F)F)nn1 [Compound 95]	< 500 nM	< 500 nM
Cc1cc(C(F)(F)F)cc(O)c1-c1ccc(CNC2CN3CCC2CC3)nn1 (centres unmarked) [Compound 154]	≥ 10000 nM	≥ 10000 nM
Cc1cc(C(F)(F)F)cc(O)c1-c1ccc(COC2CCNCC2)nn1 [Compound 19, 3-Methyl-2-(6-((piperidin-4-yloxy)methyl)pyridazin-3-yl)-5-(trifluoromethyl)phenol]	1000 to 3000 nM	1000 to 3000 nM
Cc1cc(C(F)(F)F)cc(O)c1-c1ccc(CNc2ccn(C)n2)nn1 [Compound 122]	500 to 1000 nM	< 500 nM
Cc1cc(C(F)(F)F)cc(O)c1-c1ccc(CNc2nccn2C)nn1 [Compound 82, 3-Methyl-2-(6-{[(1-methyl-1H-imidazol-2-yl)amino]methyl}pyridazin-3-yl)-5-(trifluoromethyl)phenol hydrochloride]	1000 to 3000 nM	500 to 1000 nM
Cc1cc(C(F)(F)F)cc(O)c1-c1ccc(CNCc2ccccc2)nn1 [Compound 138]	1000 to 3000 nM	500 to 1000 nM
Cc1cc(C(F)(F)F)cc(O)c1-c1ccc(Cn2ccc(=N)cn2)nn1 [Compound 121]	3000 to 10000 nM	≥ 10000 nM
Cc1cc(C(F)(F)F)cc(O)c1-c1ccc(CNCC2CCOC2)nn1 (centres unmarked) [Compound 105]	3000 to 10000 nM	1000 to 3000 nM
Cc1cc(Cl)cc(O)c1-c1ccc(CN(C)[C@H]2CC(=O)N(C)C2)nn1 [Compound 91, (4S)-4-({[6-(4-Chloro-2-hydroxy-6-methylphenyl)pyridazin-3-yl]methyl}(methyl)amino)-1-methylpyrrolidin-2-one]	1000 to 3000 nM	1000 to 3000 nM
CO[C@H]1CCN(Cc2ccc(-c3c(C)cc(Cl)cc3O)nn2)C1 [Compound 61, (S)-5-Chloro-2-(6-((3-methoxypyrrolidin-1-yl)methyl)pyridazin-3-yl)-3-methylphenol]	1000 to 3000 nM	1000 to 3000 nM
Cc1cc(C(F)(F)F)cc(O)c1-c1ccc(CNC2CCN(C)C(=O)C2)nn1 (centres unmarked) [Compound 112]	1000 to 3000 nM	500 to 1000 nM
Cc1cc(C(F)(F)F)cc(O)c1-c1ccc(CNCC2CCOCC2)nn1 [Compound 109]	3000 to 10000 nM	3000 to 10000 nM
Cc1cc(C(F)(F)F)cc(O)c1-c1ccc(CN2CCOCC2)nn1 [Compound 130]	500 to 1000 nM	500 to 1000 nM
Cc1cc(C(F)(F)F)cc(O)c1-c1ccc(CNCC(F)F)nn1 [Compound 96]	500 to 1000 nM	< 500 nM
Cc1cc(C(F)(F)F)cc(O)c1-c1ccc(CNC2CC(=O)N(C)C2=O)nn1 (centres unmarked) [Compound 114]	500 to 1000 nM	< 500 nM
CCNCc1ccc(-c2c(C)cc(C(F)(F)F)cc2O)nn1 [Compound 98]	500 to 1000 nM	< 500 nM
Cc1cc(C(F)(F)F)cc(O)c1-c1ccc(CNc2ccccn2)nn1 [Compound 78, 3-Methyl-2-(6-{[(pyridin-2-yl)amino]methyl}pyridazin-3-yl)-5-(trifluoromethyl)phenol]	≥ 10000 nM	≥ 10000 nM
